Assay results taken from PMC12362783 (Advanced Science, 2025).

Key:
[1] = biological target: PARP1 (Homo sapiens, UniProt P09874); assay: PARP enzymatic inhibition ELISA (PARP1); format: biochemical; settings: n = 3, mean ± SD
[2] = system: MDA‐MB‐453; assay: Cell growth inhibition, CellTiter‐Glo (CTG); format: cell-based; settings: Homo sapiens, MDA-MB-453; n = 3; read-out: IC50 MAD‐MB‐453
Experimental: (§1) Growth viability was determined by the CellTiter‐Glo luminescent viability assay (Promega) 5 days after drug treatment. Cell viability was measured immediately after dosing (Day 0) and after 5 days of incubation using CellTiter‐Glo (CTG, Promega, G7573). Relative viability was calculated by normalizing the raw luminescence counts of the treated groups to those of the DMSO control groups. IC₅₀ values were calculated using sigmoidal dose‐response curve fitting with GraphPad Prism 9.0 software.

[3] = system: MCF‐7; assay: Cell growth inhibition, CellTiter‐Glo (CTG); format: cell-based; settings: Homo sapiens, MCF7; n = 3
Experimental: as §1

[4] = system: MDA‐MB‐468 cells; assay: Cell cycle assay, flow cytometry (PI); format: cell-based; settings: MDA‐MB‐468, 48 h; A7, B8 0.5 and 1.0 µM, controls 1.0 µM
Experimental: (§2) The cell cycle analysis was performed with cells seeded in 6‐well plates in growth media. The cells were allowed to attach overnight (8 h). The cultures were treated with different tested drugs for 48 h. After treatment, cells were collected and fixed with 70% pre‐cold ethanol in PBS and stored at −20 °C overnight. Then washed the cells with PBS twice, and incubated with 100 µg mL^−1 RNase A at 37 °C for 1 h, stained with propidium iodide for 30 min avoid light at room temperature. The stained cells were analyzed by flow cytometry. The percentages of cells in the G1, S, and G2/M phases were determined. The data were analyzed by FlowJo software (Tree Star, Inc., Ashland, OR).

[5] = system: MDA‐MB‐231 cells; assay: Cell cycle assay, flow cytometry (PI); format: cell-based; settings: MDA‐MB‐231, 48 h; A7, B8 0.5 and 1.0 µM, controls 1.0 µM
Experimental: as §2

[6] = system: MCF‐10A; assay: Cell growth inhibition, normal breast cell line; format: cell-based
Experimental: as §1

[7] = system: TNBC cells (MDA‐MB‐231, MDA‐MB‐468, MDA‐MB‐436); assay: Anti‐proliferative activity across three TNBC cell lines (summary); format: cell-based; settings: read-out: IC50 range across three TNBC cell lines
Experimental: as §1, with “Cells were grown at 37 °C, under 95% air and 5% CO₂ until they reached about 70% confluence and were subcultured at least twice before the experiment. Cells were seeded at a density of 1000 cells/well in two 384‐well white plates, and the plates were placed in a 5% CO₂ incubator overnight. Growth” for “Growth”

[8] = system: MDA‐MB‐231 cells; assay: Wound‐healing and transwell migration assay; format: cell-based; settings: vs AZD6738 and Olaparib alone or their combination
Experimental: For the wound‐healing assay, MDA‐MB‐231 cells were seeded into 6‐well plates and grown to 80% confluence. A scratch was made in the cell monolayer using a 20 µL pipette tip, and the cells were washed with PBS to remove floating cells and debris. The cells were then incubated in serum‐free medium. Cells are divided into control and drug treatment Cells in the scratched area were imaged at 0 and 48 h using microscopy, and the distance traveled by cells at the leading edge of the wound at each time point was measured. To assess cell migration, a transwell assay was performed. […] Following 24 h of incubation, the filters were fixed in 4% paraformaldehyde, stained with 0.1% crystal violet, and then imaged and counted under a microscope to determine the number of invading cells. To assess cell invasion, the transwell plate was coated with a layer of Matrigel, and the rest procedure is similar to what has been described above.

PARP1, sequence (P09874 whole entry): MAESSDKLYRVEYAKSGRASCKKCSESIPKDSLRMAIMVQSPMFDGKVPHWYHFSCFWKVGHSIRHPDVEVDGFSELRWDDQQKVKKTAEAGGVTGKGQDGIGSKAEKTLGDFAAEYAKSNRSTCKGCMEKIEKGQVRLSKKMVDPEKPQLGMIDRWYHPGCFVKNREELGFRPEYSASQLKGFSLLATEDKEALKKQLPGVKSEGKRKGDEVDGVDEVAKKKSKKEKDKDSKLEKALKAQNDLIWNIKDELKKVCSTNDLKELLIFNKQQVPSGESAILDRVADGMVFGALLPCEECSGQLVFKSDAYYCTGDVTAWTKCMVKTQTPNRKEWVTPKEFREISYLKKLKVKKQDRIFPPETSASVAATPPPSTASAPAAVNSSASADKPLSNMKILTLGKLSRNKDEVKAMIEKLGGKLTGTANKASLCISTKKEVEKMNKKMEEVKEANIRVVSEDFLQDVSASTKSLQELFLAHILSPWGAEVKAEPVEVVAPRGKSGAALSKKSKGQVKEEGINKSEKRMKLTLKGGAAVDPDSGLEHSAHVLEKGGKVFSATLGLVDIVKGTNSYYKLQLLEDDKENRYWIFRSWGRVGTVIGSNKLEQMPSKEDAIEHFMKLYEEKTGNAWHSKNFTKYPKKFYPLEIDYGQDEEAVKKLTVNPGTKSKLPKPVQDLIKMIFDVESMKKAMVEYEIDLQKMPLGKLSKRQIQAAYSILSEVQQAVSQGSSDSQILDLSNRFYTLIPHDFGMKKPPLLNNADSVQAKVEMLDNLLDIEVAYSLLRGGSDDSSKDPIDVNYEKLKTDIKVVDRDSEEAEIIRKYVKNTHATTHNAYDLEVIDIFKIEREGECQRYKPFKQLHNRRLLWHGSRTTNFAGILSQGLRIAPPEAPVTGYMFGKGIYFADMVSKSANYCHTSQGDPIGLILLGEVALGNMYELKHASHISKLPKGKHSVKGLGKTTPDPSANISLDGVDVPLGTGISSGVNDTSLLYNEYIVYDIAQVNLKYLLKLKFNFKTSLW

SMILES: C[C@@H]1COCCN1c1cc(CNC(=O)c2ccc(C(=O)N3CCN(C(=O)c4cc(Cc5n[nH]c(=O)c6ccccc56)ccc4F)CC3)cc2)nc(-c2ccnc3[nH]ccc23)n1 [Compound B8, (R)‐4‐(4‐(2‐fluoro‐5‐((4‐oxo‐3,4‐dihydrophthalazin‐1‐yl)methyl)benzoyl)piperazine‐1‐carbonyl)‐N‐((6‐(3‐methylmorpholino)‐2‐(1H‐pyrrolo[2,3‐b]pyridin‐4‐yl)pyrimidin‐4‐yl)methyl) benzamide]
- IC50 [1]: 0.38 ± 0.08 nM
- IC50 [2]: 1080 ± 30 nM
- IC50 [3]: 970 ± 90 nM
- effect on cell cycle distribution [4]: markedly increased the proportion of G2/M phase cells
- effect on cell cycle distribution [5]: markedly increased the proportion of G2/M phase cells
- inhibition at 30 µM ([6]; Homo sapiens, MCF-10A, @30 µM, read-out: MCF‐10A inhibitory rate at certain concentration): 17%
- inhibitory activity against normal cells ([6]; MCF‐10A): minimal inhibitory activity against normal cells
- IC50 [7]: 9 to 1890 nM
- migratory capacity [8]: superior inhibitory effect on the migratory capacity
